{
  "source": "paper PMC3523327",
  "about": "(Bioorganic & medicinal chemistry letters, 2012)",
  "data": [
    {"molecular_target": "HIV-1 integrase (IN), strand transfer (Human immunodeficiency virus type 1 group M subtype B, UniProt P12497)", "assay": "in vitro IN assay, strand transfer reaction", "type": "biochemical", "conditions": "ST IC50 of 5d-2 versus 4d", "units": {"enhancement in the ST reaction relative to parent 4d": "fold"}, "values": [
      {"smiles": "CC(C)c1c(O)c(O)c2c(c1S(=O)(=O)N(C)C)CN(Cc1ccc(F)c(Cl)c1)C2=O", "note": "[Compound 5d-2]", "enhancement in the ST reaction relative to parent 4d": 20}
    ]},
    {"molecular_target": "HIV-1 integrase (IN), 3′-processing (Human immunodeficiency virus type 1 group M subtype B, UniProt P12497)", "assay": "in vitro IN assay, 3′-processing reaction", "type": "biochemical", "conditions": "not given", "units": {"IC50": "µM"}, "values": [
      {"smiles": "Cc1cc2c(c(O)c1O)C(=O)N(Cc1ccc(F)c(Cl)c1)C2", "note": "[Compound 4b]", "IC50": "> 111"},
      {"smiles": "CCCCc1cc2c(c(O)c1O)C(=O)N(Cc1ccc(F)c(Cl)c1)C2", "note": "[Compound 4c]", "IC50": "> 111"},
      {"smiles": "CC(C)c1cc2c(c(O)c1O)C(=O)N(Cc1ccc(F)c(Cl)c1)C2", "note": "[Compound 4d]", "IC50": "> 111"},
      {"smiles": "O=C1c2c(cc(-c3ccccc3)c(O)c2O)CN1Cc1ccc(F)c(Cl)c1", "note": "[Compound 4e]", "IC50": "> 111"},
      {"smiles": "CN(C)S(=O)(=O)c1ccc(-c2cc3c(c(O)c2O)C(=O)N(Cc2ccc(F)c(Cl)c2)C3)cc1", "note": "[Compound 4h]", "IC50": "> 111"},
      {"smiles": "CCCCc1c(O)c(O)c2c(c1S(=O)(=O)N(C)C)CN(Cc1ccc(F)c(Cl)c1)C2=O", "note": "[Compound 5c-2]", "IC50": "> 111"},
      {"smiles": "CC(C)c1c(O)c(O)c2c(c1S(=O)(=O)N(C)C)CN(Cc1ccc(F)c(Cl)c1)C2=O", "note": "[Compound 5d-2]", "IC50": "> 111"},
      {"smiles": "CC(C)c1c(O)c(O)c2c(c1S(=O)(=O)N1CCOCC1)CN(Cc1ccc(F)c(Cl)c1)C2=O", "note": "[Compound 5d-10]", "IC50": "> 111"}
    ]},
    {"tested_on": "HIV-1 vector with N155H IN mutant", "assay": "not given", "conditions": "cellular studies, HIV vectors bearing N155H mutant; ref [25]; cited from earlier work", "units": {"loss of antiviral potency": "fold"}, "values": [
      {"smiles": "Cc1nnc(C(=O)NC(C)(C)c2nc(C(=O)NCc3ccc(F)cc3)c(O)c(=O)n2C)o1", "note": "[raltegravir]", "loss of antiviral potency": "~40"}
    ]}
  ]
}
